Source: US6166290A, “Glutathione-S-conjugate transport in plants” (The Trustees of the University of Pennsylvania, priority 1997, dated 2000)
Read-outs that look alike come from different tables or passages of the source.

Tests used:
[1] = test system: endogenous GS-X pump of plant vacuolar membranes; conditions: cited from earlier work
[2] = target: T1, YCF1 (vacuolar membrane vesicles purified from DTY165 cells) (Saccharomyces cerevisiae, UniProt P39109); test: [3H]DNP-GS uptake by vacuolar membrane vesicles purified from DTY165 cells; assay type: biochemical; conditions: for IC50: 5 μM gramicidin D, read-out: I50 for MgATP-dependent, uncoupler-insensitive DNP-GS uptake
T1 construct: endogenous in cells; host or cells: S. cerevisiae DTY165 (wild type YCF1), vacuolar membrane vesicles
T1 sequence (P39109 whole entry): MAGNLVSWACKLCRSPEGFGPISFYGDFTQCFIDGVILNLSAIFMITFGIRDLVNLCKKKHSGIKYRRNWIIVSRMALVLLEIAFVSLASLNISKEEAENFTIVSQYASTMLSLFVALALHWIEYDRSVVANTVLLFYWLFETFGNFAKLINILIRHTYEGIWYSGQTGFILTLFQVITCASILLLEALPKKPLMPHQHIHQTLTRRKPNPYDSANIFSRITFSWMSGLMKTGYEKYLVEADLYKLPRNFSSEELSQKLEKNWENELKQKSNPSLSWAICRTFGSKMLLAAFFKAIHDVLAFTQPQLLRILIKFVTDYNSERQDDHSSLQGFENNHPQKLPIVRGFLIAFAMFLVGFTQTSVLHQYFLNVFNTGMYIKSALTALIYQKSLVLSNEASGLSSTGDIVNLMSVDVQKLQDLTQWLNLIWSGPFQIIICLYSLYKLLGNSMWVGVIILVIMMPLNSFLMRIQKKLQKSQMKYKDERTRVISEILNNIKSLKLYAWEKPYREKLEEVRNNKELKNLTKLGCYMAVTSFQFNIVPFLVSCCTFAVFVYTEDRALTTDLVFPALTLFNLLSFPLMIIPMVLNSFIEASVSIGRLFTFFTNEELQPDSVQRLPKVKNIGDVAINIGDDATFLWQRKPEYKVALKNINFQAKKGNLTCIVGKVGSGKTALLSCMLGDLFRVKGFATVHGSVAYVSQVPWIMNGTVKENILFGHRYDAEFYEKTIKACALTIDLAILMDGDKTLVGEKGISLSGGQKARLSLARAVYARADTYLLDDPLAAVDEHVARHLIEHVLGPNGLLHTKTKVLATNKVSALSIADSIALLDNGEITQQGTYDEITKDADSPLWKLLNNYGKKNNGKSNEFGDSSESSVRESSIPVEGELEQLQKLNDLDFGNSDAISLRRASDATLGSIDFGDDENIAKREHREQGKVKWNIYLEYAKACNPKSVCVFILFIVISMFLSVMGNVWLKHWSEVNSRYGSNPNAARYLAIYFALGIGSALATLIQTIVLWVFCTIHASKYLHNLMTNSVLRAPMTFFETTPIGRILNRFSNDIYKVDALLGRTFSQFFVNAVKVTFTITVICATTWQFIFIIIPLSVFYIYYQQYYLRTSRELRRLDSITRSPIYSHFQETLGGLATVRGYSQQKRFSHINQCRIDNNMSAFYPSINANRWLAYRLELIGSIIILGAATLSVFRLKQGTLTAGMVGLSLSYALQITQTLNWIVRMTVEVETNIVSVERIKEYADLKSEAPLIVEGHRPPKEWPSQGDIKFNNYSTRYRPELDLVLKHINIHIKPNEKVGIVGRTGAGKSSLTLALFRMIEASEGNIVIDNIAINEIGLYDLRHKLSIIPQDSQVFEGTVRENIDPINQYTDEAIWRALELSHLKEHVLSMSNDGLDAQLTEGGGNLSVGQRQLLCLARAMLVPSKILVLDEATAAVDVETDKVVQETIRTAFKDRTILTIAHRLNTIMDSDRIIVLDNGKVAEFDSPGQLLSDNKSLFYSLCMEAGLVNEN
Protocol: (§1) For the routine preparation of vacuolar membrane vesicles, 15 ml of stationary phase cultures of DTY165 or DTY167 were diluted into 1-liter volumes of fresh YPD medium, grown for 24 hours at 30° C. to an OD600 nm of approximately 0.8 and collected by centrifugation. After washing with distilled water, the cells were converted to spheroplasts with Zymolyase 20T (ICN) (Kim et al., 1994, supra) and intact vacuoles were isolated by flotation centrifugation of spheroplast lysates on Ficoll 400 step gradients as described by Roberts et al. (1991, Methods. Enzymol. 194:644-661). Both the spheroplast lysis buffer and Ficoll gradients contained 2 mg/ml bovine serum albumin, 1 μg/ml aprotinin, 1 μg/ml leupeptin, 1 μg/ml pepstatin, and 1 mM PMSF to minimize proteolysis. The resulting vacuole fraction was vesiculated in 5 mM MgCl2, 25 mM KCl, 10 mM Tris-Mes (pH 6.9) containing 2 mg/ml bovine serum albumin, 1 μg/ml aprotinin, 1 μg/ml leupeptin, 1 μg/ml pepstatin, and 1 mM PMSF, pelleted by centrifugation at 37,000× g for 25 min, and resuspended in suspension medium (1.1 M glycerol, 2 mM dithiothreitol, 1 mM Tris-EGTA, 2 mg/ml bovine serum albumin, 1 μg/ml aprotinin, 1 μg/ml leupeptin, 1 μg/ml pepstatin, 1 mM PMSF, 5 mM Tris-Mes, pH 7.6) (Kim et al., 1995, J. Biol. Chem. 270:2630-2635).
(§2) Unless otherwise indicated, [^3 H]DNP-GS uptake was measured at 25° C. in 200 μl reaction volumes containing 3 mM ATP, 3 mM MgSO4, 5 μM gramicidin-D, 10 mM creatine phosphate, 16 units/ml creatine kinase, 50 mM KC 1, 1 mg/ml bovine serum albumin, 400 mM sorbitol, 25 mM Tris-Mes (pH 8.0), and 66.2 μM [^3 H]DNP-GS (8.7 mCi/mmol) (Li et al., 1995, supra). […] Uptake was initiated by the addition of vacuolar membrane vesicles (10-15 μg of membrane protein), brief mixing of the samples on a vortex mixer and uptake was then allowed to proceed for 1-60 minutes. Uptake was terminated by the addition of 1 ml of ice-cold wash medium (400 mM sorbitol, 3 mM Tris-Mes, pH 8.0) and vacuum filtration of the suspension through prewetted Millipore HA cellulose nitrate membrane filters (pore diameter, 0.45 μm). The filters were rinsed twice with 1 ml of ice-cold wash medium and air-dried, and radioactivity was determined by liquid scintillation counting in BCS mixture (Amersham Corp.). Nonenergized [^3 H]DNP-GS uptake and extravesicular solution trapped on the filters were enumerated by the same procedure except that ATP and Mg^2 +were omitted from the uptake medium.

DTY165 cells = test: Growth inhibition of DTY165 (wild type) cells by CDNB; assay type: cell-based; conditions: Saccharomyces cerevisiae, 24 hours, read-out: diminution of optical density of culture
Protocol: (§3) FIGS. 1A-1B are a series of graphs depicting differential sensitivities of DYT165 cells (wild type, FIG. 1A) and DTY167 cells (ycf1Δ mutant, FIG. 1B) to growth inhibition by 1-chloro-2,4-dinitrobenzene (CDNB). Cells were grown at 30° C. for 24 hours to an OD600 nm of approximately 1.4 in YPD medium before inoculation of aliquots into 15 ml volumes of the same medium containing 0-60 μM CDNB. OD600 nm was measured at the times indicated.
(§4) Two strains of S. cerevisiae were used in these studies: DTY165 (MATα ura3-52 his6 leu2-3,-112 his3-Δ200 trp1-901 lys2-801 suc2-Δ) and the isogenic ycf1Δ mutant strain, DTY167 (MATα ura 3-52 his6 leu2-3,-112 his3-Δ200 trp 1-901 lys2-801 suc2-Δ, ycf1::hisG). The strains were routinely grown in rich (YPD) medium, or, when transformed with plasmid containing functional YCF1 gene, in synthetic complete medium (Sherman et al., 1983, Methods in Yeast Genetics, Cold Spring Harbor Laboratory, New York) or AHC medium (Kim et al., 1994, supra) lacking the appropriate amino acids. Escherichia coli strains XL1-blue (Stratagene) and DH11S were employed for the construction and maintenance of plasmid stocks (Ausubel et al., 1987, Current Protocols in Molecular Biology, Wiley, New York).
(§5) The isogenic wild type strain DTY165 and the ycf1Δ mutant strain, DTY167, were indistinguishable during growth in YPD medium lacking CDNB; both strains grew at the same rate after a brief lag. However, the addition of CDNB to the culture medium caused a greater retardation of the growth of DTY167 cells (FIG. 1B) than DTY165 cells (FIG. 1A). […] The optical densities of the DTY167 cultures were diminished by 65, 82, 85, and 91% by 40, 50, 60, and 70 μM CDNB, respectively, after 24 hours of incubation (FIG. 1B), whereas the corresponding diminutions for the DTY165 cultures were 14, 31, 59, and 92% (FIG. 1A). The increase in sensitivity to CDNB conferred by deletion of the YCF1 gene was similar to that seen with cadmium.

[3] = target: T1, YCF1 (vacuolar membrane vesicles purified from DTY165 cells); test: biochemical; assay type: biochemical; conditions: 24 h, read-out: increase of 109Cd.GS2 uptake into vesicles from pretreated cells
Protocol: In experiments involving cadmium transport, dithiothreitol and EGTA were removed from the suspension medium to prevent the attenuation of YCF1-dependent Cd^2+ transport otherwise exerted by these compounds. Vesiculated vacuolar membranes were subjected to three cycles of 50-fold dilution into simplified suspension medium (1.1 M glycerol, 5 mM Tris-Mes, pH 8.0), centrifugation at 100,000× g for 35 minutes and resuspension in the same medium before use.
Singly radiolabeled ^109 Cd.GSn and doubly radio-labeled ^109 Cd[^3 H].GS^n complexes were prepared by sequential gel-filtrationand anion-exchange chromatography of the reaction products generated by incubating 20 mM ^109 CdSO4 (78.4 mCi/mmol) with 40 mM GSH or 40 mM [^3 H]GSH (240 mCi/mmol) in 15 ml 10 mM phosphate buffer (pH 8.0) containing 150 mM KNO3 at 45° C. for 24 hours. For gel-filtration, 2 ml aliquots of the reaction mixture were applied to a column (40×1.5 cm ID) packed with water-equilibrated Sephadex G-1 5, eluted with deionized water and ^109 Cd and/or ^3 H in the fractions was measured by liquid scintillation counting. The fractions encompassed by each of the two ^109 Cd.GSn peaks identified were pooled, lyophilized and redissolved in 4 ml of loading buffer (5 mM Tris-Mes, pH 8.0). For anion-exchange chromatography, 0.5 ml aliquots of the resuspended lyophilizates from gel-filtration chromatography were applied to a Mono-Q HR5/5 column (Pharmacia) equilibrated with the same buffer. Elution was with a linear gradient of NaCl (0.5 ml/minute; 0-500 mM) dissolved in loading buffer. The individual fractions corresponding to the major peaks of ^109 Cd obtained from the Mono-Q column (one each for the peaks resolved by gel-filtration chromatography) were pooled, lyophilized and resuspended in 4 ml deionized water after liquid scintillation counting.
MgATP-energized, uncoupler-insensitive ^109 Cd^2+ uptake by vacuolar membrane vesicles was measured at 25° C. in 200 μl reaction volumes containing 3 mM ATP, 3 mM MgSO4, 5 μM gramicidin-D, 10 mM creatine phosphate, 16 units/ml creatine kinase, 50 mM KCl, 400 mM sorbitol, 25 mM Tris-Mes (pH 8.0) and the indicated concentrations of ^109 CdSO4, GSH or ^109 Cd- and/or ^3 H-labeled purified Cd.GSn complexes as described herein except that the wash media contained 100 μM CdSO4 in addition to sorbitol (400 mM) and Tris-Mes (3 mM, pH 8.0).

DTY167 cells = test: Growth inhibition of DTY167 (ycf1Δ mutant) cells by CDNB; assay type: cell-based; conditions: Saccharomyces cerevisiae, 24 hours, read-out: diminution of optical density of culture
Protocol: as §3, §4, §5

[4] = test system: vacuolar GS-X pump (vacuolar membrane vesicles, Z. mays roots); test: GS-conjugate uptake by vacuolar membrane vesicles from roots of Z. mays; assay type: biochemical, Zea mays
[5] = test system: membrane vesicles purified from pYES3-transformed DTY168 cells; test: DNP-GS uptake by membrane vesicles from pYES3 (empty vector)-transformed DTY168 cells; assay type: biochemical, Saccharomyces cerevisiae
Protocol: S. cerevisiae strain DTY168 (MATα his6, leu2-3, -112, ura3-52 ycf1::hisG) was transformed with pYES3-AtMRP1 or empty vector lacking the AtMRP1 insert (pYES3) by the LiOAc/PEG method (Giest et al., 1991, Yeast 7:253-263) and selected for uracil prototrophy by plating on AHC medium containing tryptophan (Kim et al., 1994, supra).
For the preparation of membrane vesicles, 15 ml volumes of stationary phase cultures of the transformants were diluted into 1 L of fresh AHC medium and grown to an OD600 nm of about 1.2. Membrane vesicles were purified as described herein and in Kim et al. (1995, supra).
DNP-GS uptake was measured as described herein in 200 μl reaction volumes containing 3 mM ATP, 3 mM MgSO4, 5 μM gramicidin-D, 10 mM creatine phosphate, 16 units/ml creatine kinase, 50 mM KCl, 1 mg/ml BSA, 400 mM sorbitol, 25 mM Tris-Mes (pH 8.0) and the indicated concentrations of [^3 H]DNP-GS (17.4 mCi/mmol).

[6] = test system: vacuolar GS-X pump (vacuolar membrane vesicles, V. radiata hypocotyls); test: GS-conjugate uptake by vacuolar membrane vesicles from etiolated hypocotyls of V. radiata; assay type: biochemical, Vigna radiata
Protocol: Values shown are means ±SE (n=3).
Vacuolar membrane vesicles were purified from etiolated hypocotyls of V. radiata cv.
Unless otherwise indicated, [^3 H]medicarpin or [3H]medicarpin-GS uptake was measured at 25° C. in 200 μl reaction volumes containing 3 mM ATP, 3 mM MgSO4, 10 mM creatine phosphate, 16 U/ml creatine kinase, 50 mM KCl, 0.1% (w/v) BSA, 400 mM sorbitol and 25 mM Tris-Mes buffer, pH 8.0. Uptake was initiated by the addition of 12 μl membrane vesicles (30-40 μg protein) and brief mixing of the samples on a vortex mixer. Uptake was terminated by the addition of 1 ml ice-cold wash medium (400 mM sorbitol, 3 mM Tris-Mes, pH 8.0) and vacuum filtration of the suspension through prewetted HA cellulose nitrate filters (pore diameter 0.45 μm). The filters were rinsed twice with a 1 ml ice-cold wash medium, air-dried and radioactivity was determined by liquid scintillation counting.

[7] = test system: vacuolar membrane vesicles purified from DTY167 cells (ycf1Δ mutant); assay type: biochemical, Saccharomyces cerevisiae; conditions: 5 μM gramicidin D
Protocol: as §1, §2

[8] = read-out: I50 for uptake of IAA-GS

CCN1C(=O)CC(SC[C@H](NC(=O)CC[C@H](N)C(=O)O)C(=O)NCC(=O)O)C1=O (stereo partly shown) [glutathione-S-N-ethylmaleimide]
Km ([1]; read-out: Km for transport by endogenous plant vacuolar GS-X pump): 500 µM

O=[N+]([O-])c1ccc(Cl)c([N+](=O)[O-])c1 [CDNB, 1-chloro-2,4-dinitrobenzene]
fold induction at 150 µM ([2]; 24 h, read-out: increase of [3H]DNP-GS uptake into vesicles from pretreated cells): 2.8 | inhibition of growth at 40 µM (DTY165 cells; 40 μM CDNB): 14% | inhibition of growth at 50 µM (DTY165 cells; 50 μM CDNB): 31% | inhibition of growth at 60 µM (DTY165 cells; 60 μM CDNB): 59% | inhibition of growth at 70 µM (DTY165 cells; 70 μM CDNB): 92% | fold induction at 150 µM [3]: 1.7 | inhibition of growth at 40 µM (DTY167 cells; 40 μM CDNB): 65% | inhibition of growth at 50 µM (DTY167 cells; 50 μM CDNB): 82% | inhibition of growth at 60 µM (DTY167 cells; 60 μM CDNB): 85% | inhibition of growth at 70 µM (DTY167 cells; 70 μM CDNB): 91%

[O]=[V]([O-])([O-])[O-] [Vanadate]
IC50 ([4]; read-out: I50 for uptake of ABA-GS): > 150 µM | IC50 ([4]; read-out: I50 for uptake of C3G-GS): 8.2 µM | IC50 [4, 8]: 5.5 µM | sensitivity of DNP-GS uptake to vanadate [5]: insensitive | IC50 ([2]; listed as vanadate): 179 µM | IC50 [2]: 179 µM | IC50 ([6]; V. radiata, read-out: I50 for uptake of C3G-GS): 7.9 µM | IC50 [6, 8]: 6.5 µM | inhibition of MgATP-dependent [3H]medicarpin-GS uptake ([6]; vanadate 10 μM, DNP-GS 100 μM, gramicidin D): more than 85% | IC50 ([1]; vanadate, read-out: I50 for inhibition of the endogenous vacuolar GS-X pump of plant cells): 7.5 ± 3.9 µM | I50 for MgATP-dependent, uncoupler-insensitive DNP-GS uptake [7]: Insensitive
